Tests used:
[1] = test system: MAO; set-up: method as in Kozioł et al. [2020]; settings: reference inhibitors at ∼3–5 μM; ref Kozioł et al. [2020]; cited from earlier work
[2] = test system: hMAO-A; set-up: method as in Seong et al. [2019]; settings: ref Seong et al. [2019], cited from earlier work; for isoform selectivity (in words): hMAO-A versus hMAO-B
[3] = test system: hMAO-B; set-up: method as in Seong et al. [2019]; settings: ref Seong et al. [2019]; cited from earlier work
[4] = test system: hMAO; set-up: method as in Seong et al. [2019]; settings: enzyme kinetic studies; ref Seong et al. [2019]; cited from earlier work
[5] = test system: human MAO-B; set-up: method as in Kozioł et al. [2020]; settings: 6.17 μM; ref Kozioł et al. [2020]; cited from earlier work
[6] = test system: MAO-A; set-up: method as in Kozioł et al. [2020]; settings: 6.17 μM; ref Kozioł et al. [2020]; cited from earlier work
[7] = biological target: T1, recombinant human MAO-B (Homo sapiens, UniProt P27338); test: Recombinant human MAO-B enzyme inhibition assay; type: biochemical
T1 construct: purchased Active Motif 31503
T1 sequence (P27338 1-520): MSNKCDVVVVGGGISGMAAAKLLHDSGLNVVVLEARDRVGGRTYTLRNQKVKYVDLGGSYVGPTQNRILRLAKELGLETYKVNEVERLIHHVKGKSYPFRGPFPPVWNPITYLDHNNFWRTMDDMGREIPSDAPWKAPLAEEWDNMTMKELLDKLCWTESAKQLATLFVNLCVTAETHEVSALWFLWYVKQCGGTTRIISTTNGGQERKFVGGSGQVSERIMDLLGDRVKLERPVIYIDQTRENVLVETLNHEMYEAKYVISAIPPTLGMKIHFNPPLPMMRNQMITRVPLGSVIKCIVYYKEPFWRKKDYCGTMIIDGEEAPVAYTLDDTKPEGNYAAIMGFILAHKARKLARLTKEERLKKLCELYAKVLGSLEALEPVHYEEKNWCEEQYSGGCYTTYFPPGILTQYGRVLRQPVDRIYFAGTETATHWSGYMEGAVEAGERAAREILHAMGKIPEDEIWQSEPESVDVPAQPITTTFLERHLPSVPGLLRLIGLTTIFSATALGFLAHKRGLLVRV
Procedure: All compounds were tested with technical replicates. Compounds (100× final concentration) in 384-well source plates were dispensed (200 nL per well) into assay plates. Min/Max control wells received 200 µL of 100% DMSO. All wells except the Min controls were supplemented with 10 μL of 10 nM MAO-B (Min controls received buffer instead). Plates were centrifuged at 1000 × g for 1 min and incubated at 25 °C for 15 min. Then, 10 μL of 0.5 μM substrate was added to each well. After further centrifugation, the plates were protected from light and incubated for 60 min. The reaction was terminated by adding 20 μL of stop solution, followed by centrifugation and a 20-min equilibration period. Fluorescence was measured using an EnVision microplate reader. The inhibition percentage was calculated as follows: Inhibition (%) = [signal (max)− signal (sample)]/[signal (max) − signal (min)] × 100. Dose–response curves were generated by plotting the logarithm of compound concentration (X-axis) against the percentage inhibition (Y-axis). Curve fitting was performed in GraphPad Prism 8 using the ‘log(inhibitor) vs. response -Variable slope’ model to determine the IC50 values for MAO-B inhibition.

[8] = test system: LPS-induced HepG2 cells; test: ALT and AST in supernatant of LPS-induced HepG2 cells; type: cell-based, Homo sapiens; settings: HepG2, 100 ng/mL LPS, compounds 10, 20, 40 μM; p < 0.01 vs. model
Procedure: (§1) An LPS-induced hepatocyte injury model was established in HepG2 cells by treatment with 100 ng/mL LPS, using silymarin as a positive control. After treatment with test compounds at concentrations of 10, 20, and 40 μM, the cell culture supernatant was collected and centrifuged at 1000 × g for 15 min at 4 °C. The levels of alanine aminotransferase (ALT) and aspartate aminotransferase (AST) in the supernatant were quantified using commercial assay kits according to the manufacturer’s instructions. Absorbance was measured at 510 nm using a microplate reader, and results are expressed in units per liter (U/L). Additionally, the concentrations of interleukin-4 (IL-4), interleukin-10 (IL-10), and tumor necrosis factor-α (TNF-α) in the supernatant were determined by enzyme-linked immunosorbent assay (ELISA) using corresponding commercial kits. All procedures were performed in strict accordance with the manufacturer’s protocols. Cytokine levels are reported in picograms per milliliter (pg/mL), as calculated from the respective standard curves.
Silymarin was used as a positive control. The supernatant of HepG2 cells was collected from different experimental groups and separated by centrifugation (4 °C, 1000 rpm, 15 minutes). The levels of ALT and AST in the supernatant were determined following the manufacturer's instructions provided with the commercial assay kits. The optical density (OD) values of each well were measured at a wavelength of 510 nm using a microplate reader. These values are expressed in units per liter (U/L) or millimoles per liter (mmol/L).

[9] = test system: LPS-induced HepG2 cells; test: IL-4, IL-10 and TNF-α in supernatant of LPS-induced HepG2 cells (ELISA); type: cell-based, Homo sapiens; settings: for LPS-induced inflammatory response (pro-inflammatory cytokines): HepG2, LPS
Procedure: as §1
The cell culture supernatant was collected and separated by centrifugation at 4°C and 1000 rpm for 15 minutes. Levels of IL-4, IL-10, and TNF-α in the supernatant were determined using enzyme-linked immunosorbent assay (ELISA), strictly following the manufacturer’s protocols provided with the corresponding commercial ELISA kits. These values were quantified in picograms per milliliter (pg/mL) based on the standard curves generated.

[10] = test system: liver injury; set-up: method as in He et al. [2024]; settings: suppressing TNF-α/JAK1/STAT3 signaling while enhancing IL-4/IL-10 production; ref He et al. [2024]; cited from earlier work
[11] = test system: human MAO-B (hMAO-B); set-up: method as in Dhiman et al. [2018]; settings: ref Dhiman et al. [2018], cited from earlier work
[12] = HepG2 supernatant, LPS, 10–40 μM, ELISA

C#CCN(C)CCCOc1ccc(Cl)cc1Cl [clorgyline]
MAO inhibition [1]: > 99%

C#CCN(C)[C@H](C)Cc1ccccc1 [selegiline]
MAO inhibition [1]: > 99%

O=Cc1cc2ccc(=O)oc2cc1O [6-formyl umbelliferone]
isoform selectivity (in words) [2]: selectivity for hMAO-A versus hMAO-B
IC50 [2]: 3.23 µM
IC50 [3]: 15.3 µM
mode of hMAO inhibition [4]: competitive

C=CC(C)(C)c1cc2cc3c(cc2oc1=O)OC(C(C)(C)OC(C)=O)C3 (stereo not shown) [rutamarin]
inhibition rate of human MAO-B [5]: 95.26%
inhibition of MAO-A [6]: 25.15%

O=C(O)c1cc2ccc(=O)oc2cc1O [umbelliferone-6-carboxylic acid]
isoform selectivity (in words) [2]: selectivity for hMAO-A versus hMAO-B

COc1cc2ccc(=O)oc2cc1O [scopoletin]
isoform selectivity (in words) [2]: selectivity for hMAO-A versus hMAO-B

CC1(C)CC1c1cc2ccc(O)cc2oc1=O (racemic) [(±)-1, (±)-Rutacycoumarin A]
MAO-B inhibition (in words) [7]: potently inhibited
LPS-elevated ALT level [8]: significant suppression
LPS-elevated AST level [8]: significant suppression
LPS-induced inflammatory response (pro-inflammatory cytokines) [9]: significant suppression

O=Cc1c(O)ccc2ccc(=O)oc12 [8-formyl umbelliferone]
isoform selectivity (in words) [2]: selectivity for hMAO-A versus hMAO-B
mode of hMAO inhibition [4]: competitive

Cn1c(-c2ccc3c(c2)OCO3)cc(=O)c2ccccc21 [graveoline]
hepatoprotective effect [10]: attenuates liver injury

O=c1ccc2cc(O)c(O)cc2o1 [esculetin]
isoform selectivity (in words) [2]: selectivity for hMAO-A versus hMAO-B

COc1cc2cc(C3CC3(C)C)c(=O)oc2cc1O (racemic) [(±)-2, (±)-Rutacycoumarin B]
MAO-B inhibition (in words) [7]: potently inhibited
LPS-elevated ALT level [8]: significant suppression
LPS-elevated AST level [8]: significant suppression
LPS-induced inflammatory response (pro-inflammatory cytokines) [9]: significant suppression
IL-4 level [9, 12]: dose-dependently restored
IL-10 level [9, 12]: dose-dependently restored
TNF-α expression [9, 12]: suppressed

O=c1ccc2ccc(O)cc2o1 [umbelliferone]
isoform selectivity (in words) [2]: selectivity for hMAO-A versus hMAO-B

O=C(Oc1ccc2ccc(=O)oc2c1)C(O)c1ccccc1 (stereo not shown) [2-oxo-2H-chromen-7-yl 2-hydroxy-2-phenylacetate]
selectivity index ([11]; hMAO-B): 8.55
IC50 [11]: 10.32 ± 0.044 µM

From article PMC12704139, “(±)-Rutacycoumarins A and B: two pairs of unprecedented coumarin enantiomers from the aerial part of Ruta graveolens L. and chemically synthesized” (Pharmaceutical Biology, 2025)
